Literature values, collected in patent US20230109016A1, “IN-VITRO DIAGNOSIS OF HISTAMINE INTOLERANCE SYNDROME” (IMMUNDIAGNOSTIK AG, priority 2020, published 2023).
Read-outs that look alike come from different tables or passages of the source.

Experiments:
[1] = target: T1, DAO in serum (Homo sapiens, UniProt P19801)
T1 construct: host or cells: serum
T1 sequence (P19801 20-751): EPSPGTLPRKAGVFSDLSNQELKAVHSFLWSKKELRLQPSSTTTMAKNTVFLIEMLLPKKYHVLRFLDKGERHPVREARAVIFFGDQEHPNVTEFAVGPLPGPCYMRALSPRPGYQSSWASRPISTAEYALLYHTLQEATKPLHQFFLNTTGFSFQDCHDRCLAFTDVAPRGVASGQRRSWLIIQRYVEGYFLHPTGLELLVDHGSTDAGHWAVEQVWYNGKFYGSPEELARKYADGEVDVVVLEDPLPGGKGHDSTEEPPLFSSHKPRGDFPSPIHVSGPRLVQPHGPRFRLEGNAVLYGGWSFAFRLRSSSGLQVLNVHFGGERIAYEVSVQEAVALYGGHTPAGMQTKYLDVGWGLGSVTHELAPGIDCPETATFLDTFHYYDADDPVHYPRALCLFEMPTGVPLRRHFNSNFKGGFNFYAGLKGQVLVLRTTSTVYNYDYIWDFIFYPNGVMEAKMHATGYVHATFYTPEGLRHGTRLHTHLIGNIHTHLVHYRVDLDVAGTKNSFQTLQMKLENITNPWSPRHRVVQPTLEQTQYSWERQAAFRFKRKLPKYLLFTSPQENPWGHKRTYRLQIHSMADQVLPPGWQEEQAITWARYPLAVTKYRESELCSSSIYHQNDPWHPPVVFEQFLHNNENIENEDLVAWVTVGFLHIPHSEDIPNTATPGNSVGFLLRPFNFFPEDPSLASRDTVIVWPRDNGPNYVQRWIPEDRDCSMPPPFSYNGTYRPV

[2] = target: T2, DAO (Homo sapiens, UniProt P19801); conditions: presence of heparin in experiments with cell culture
T2 sequence (P19801 20-751): T1 sequence (P19801 20-751)

[3] = test system: DAO; conditions: within 30 minutes of heparin administration
[4] = target: T2, DAO; conditions: 14C-putrescine 1 micromole to 5 millimole
[5] = test system: MAO; conditions: 14C-putrescine 1 micromole to 5 millimole
[6] = target: recombinant human kidney DAO (Homo sapiens, UniProt P19801); conditions: read-out: Km (Michaelis constant); isolated recombinant human kidney DAO expressed in Drosophila cells (Elmore et al. 2002)
[7] = target: Human serum DAO (Homo sapiens, UniProt P19801)
[8] = 37° C.

Row | Compound | effect on the activity of DAO in serum ([1]; stated as known) | further results
1 | N=C(N)NC(=O)c1nc(Cl)c(N)nc1N [amiloride] | inhibited | –
2 | C=CC[N@@+]12CC[C@@]34c5ccccc5N5/C=C6/[C@H]7C[C@H]8[C@@]9(CC[N@@+]8(CC=C)C/C7=C/CO)c7ccccc7N(/C=C(/[C@@H](C[C@@H]31)/C(=C\CO)C2)[C@H]54)[C@@H]69 [alcuronium] | inhibited | –
3 | O=P1(N(CCCl)CCCl)NCCCO1 (centres unmarked) [cyclophosphamide] | inhibited | –
4 | C=CCc1ccccc1OCC(O)CNC(C)C (centres unmarked) [alprenolol] | inhibited | –
5 | COc1cc2c3cc1Oc1cc(ccc1O)C[C@@H]1c4c(cc(OC)c(O)c4Oc4ccc(cc4)C[C@@H]3N(C)CC2)CC[N+]1(C)C [D-tubocurarine] | inhibited | –
6 | CO/N=C(\C(=O)N[C@@H]1C(=O)N2C(C(=O)O)=C(COC(N)=O)CS[C@H]12)c1ccco1 [cefuroxime] | inhibited | –
7 | CN(C)CCC=C1c2ccccc2CCc2ccccc21 [amitriptyline] | inhibited | –
8 | heparin | – | impact on the DAO level or its activity [2]: no impact; DAO levels in humans [3]: increase sharply
9 | CCOC(=O)C1(c2ccccc2)CCN(C)CC1 [pethidine] | – | effect on the activity of DAO in serum [1]: inhibited
10 | CC(=O)N[C@@H](CS)C(=O)O [acetylcysteine] | inhibited | –
11 | Cc1c(N(C)CS(=O)(=O)O)c(=O)n(-c2ccccc2)n1C [metamizole] | inhibited | –
12 | N=C(N)NN [alpha-aminoguanidine] | – | sensitivity of serum DAO (high affinity enzyme) to inhibitor [4]: sensitive
13 | CC(CCc1ccc(O)cc1)NCCc1ccc(O)c(O)c1 (centres unmarked) [dobutamine] | inhibited | –
14 | Cn1c(=O)c2[nH]cnc2n(C)c1=O [aminophylline] | inhibited | –
15 | C#CCN(C)[C@H](C)Cc1ccccc1 [selegiline] | – | sensitivity of serum MAO (lower affinity enzyme) to inhibitor [5]: sensitive
16 | Nc1c(Br)cc(Br)cc1CN[C@H]1CC[C@H](O)CC1 [ambroxol] | inhibited | –

Row | Compound | effect on the activity of DAO in serum ([1]; stated as known) | further results
17 | CN(C)CCn1nnnc1SCC1=C(C(=O)O)N2C(=O)[C@@H](NC(=O)Cc3csc(N)n3)[C@H]2SC1 [cefotiam] | inhibited | –
18 | CC(=O)Oc1ccccc1C(=O)O [acetylsalicylic acid] | inhibited | –
19 | CN1CC[C@]23c4c5ccc(O)c4O[C@H]2[C@@H](O)C=C[C@H]3[C@H]1C5 [morphine] | – | effect on the activity of DAO in serum [1]: inhibited
20 | O=C(O)[C@H]1/C(=C/CO)O[C@@H]2CC(=O)N21 [clavulanic acid] | inhibited | –
21 | N/N=c1\[nH][nH]/c(=N\N)c2ccccc12 [dihydralazin] | inhibited | –
22 | CN/C(=N/CCSCc1nc[nH]c1C)NC#N [cimetidine] | inhibited | –
23 | NNC(=O)c1ccncc1 [isoniazid] | inhibited | –
24 | N=C(N)c1ccc(OCCCCCOc2ccc(C(=N)N)cc2)cc1 [pentamidin] | inhibited | –
25 | CCN(CC)CCNC(=O)c1cc(Cl)c(N)cc1OC [metoclopramide] | inhibited | –
26 | NCCCCN [putrescine, 1,4-diaminobutane] | – | Km [6]: ~20 µM
27 | NCCc1c[nH]cn1 [histamine, 2-(4-imidazolyl)-ethylamine] | – | inhibition of human serum DAO ([7]; 100 micromolar histamine in the assay): partly inhibited; inhibition of human DAO activity ([7]; histamine concentration of 500 micromoles (U.S. Pat. No. 8,003,343)): about 60%; apparent half-life in serum [8]: 0.033 to 4 h; Km [6]: ~2.8 µM
28 | CCCNC(C)C(=O)Nc1ccccc1C (centres unmarked) [prilocaine] | inhibited | –
29 | CCCC(C)C1(CC)C(=O)NC(=S)NC1=O (centres unmarked) [thiopental] | – | effect on the activity of DAO in serum [1]: inhibited
30 | CC(=O)O[C@H]1C[C@@H]2CC[C@@H]3[C@H](CC[C@@]4(C)[C@H]3C[C@H]([N+]3(C)CCCCC3)[C@@H]4OC(C)=O)[C@@]2(C)C[C@@H]1[N+]1(C)CCCCC1 [pancuronium] | inhibited | –
31 | CCN(CC)CCCC(C)Nc1ccnc2cc(Cl)ccc12 (centres unmarked) [chloroquine] | inhibited | –
